This note sets out measurements from publication PMC3025922 (BMC Biology, 2010).

For data set [1], the system named is nuclear p27 in LNCaP-S14 cells. The format is cell-based, human. The note with it: for Z score (aver) / Clasf: primary screening; for Z score (aver): nuclear p27 in LNCaP-S14 cells; for Clasf: S = strong, M = medium, W = weak by Z score.
The nature of data set [2]: MTT cytotoxicity assay, IMR90. The data set is classed as cell-based. The note with it: human, IMR90, 0.01 - 40 μM, 72 h. On the technique in general: Tetrazolium assays rely on reduction of a dye to a coloured formazan, in cell work by metabolically active cells.
Description: (§1) LNCaP-S14 (10,000 cells), PC3, DU145 or IMR90 cells (5000 cells) were seeded in 96-well plates and treated with increasing concentrations of the respective SMIPs for 72 h. Cell viability was assessed using the MTT cell proliferation assay (ATCC®, Middlesex, UK) according to the manufacturer's protocol. IC50 was calculated using the BioDataFit 1.02 software http://www.changbioscience.com/stat/ec50.html.
For data set [3], the system named is LNCaP-S14 cells. Nature of the data set: MTT cytotoxicity assay, LNCaP-S14. The note with it: Homo sapiens, 72 h, read-out: IC50 (MTT cytotoxicity).
Description: as §1

Where two headings read alike, the source gives them in different places.

For the compound `CCCCCCC[N+](CC)(CC)CCCCc1ccc(Cl)cc1.Cc1ccc(S(=O)(=O)[O-])cc1` [1568P20], in data set [1], the “Z score (aver)” value is on record as 9.16 and the Clasf entry was “S (strong (Z score > 5))”. Taken in the same sequence, the figures for `Cl.OCCN1CCN(CCCN2c3ccccc3Sc3ccc(C(F)(F)F)cc32)CC1` [1568P22] were 2.76 and “W (weak (Z score 2-3)”. The corresponding values for `CN(C)CCC=C1c2ccccc2Sc2ccc(Cl)cc21.Cl` [1569E17] are 3.86 and “M (medium (Z score 3-5))”. Taken in the same sequence, the figures for `COc1ccc(Cc2nccc3cc(OC)c(OC)cc23)cc1OC.Cl` [1569F08] were 2.60 and “W (weak (Z score 2-3)”.

As for `C=C(NC(=O)C(=C)NC(=O)c1csc(C2=NC3c4csc(n4)C4NC(=O)c5csc(n5)C(C(C)(O)C(C)O)NC(=O)C5CSC(=N5)C(=CC)NC(=O)C(C(C)O)NC(=O)c5csc(n5)C3(CC2)NC(=O)C(C)NC(=O)C(=C)NC(=O)C(C)NC(=O)C(C(C)CC)NC2C=Cc3c(C(C)O)cc(nc3C2O)C(=O)OC4C)n1)C(N)=O` (stereo not shown) [1569J05], in data set [1], the “Z score (aver)” value is recorded as 5.60 and the Clasf result is given as “S (strong (Z score > 5))”. Taken in the same sequence, the figures for `CSc1ccc2c(c1)C(N1CCN(C)CC1)Cc1ccccc1S2.O=C(O)C=CC(=O)O` (stereo not shown) [1569K11] were 4.55 and “M (medium (Z score 3-5))”. Taken in the same sequence, the figures for `C=C1c2c(Cl)ccc(O)c2C(=O)C2=C(O)C3(O)C(=O)C(C(N)=O)=C(O)C(N(C)C)C3C(O)C12.O=C(O)c1cc(S(=O)(=O)O)ccc1O` (stereo not shown) [1569K14] were 2.51 and “W (weak (Z score 2-3)”. The corresponding values for `CC1=CC(=O)c2ccccc2C1=O` [1569K20] are 6.94 and “S (strong (Z score > 5))”. For `Cc1c2ccncc2c(C)c2c1[nH]c1ccccc12` [1569L10], in data set [1], the “Z score (aver)” value worked out at 2.59 and the Clasf result is on record as “W (weak (Z score 2-3)”. The corresponding values for `Cl.Fc1ccc(C(OCCN2CCN(CCCc3ccccc3)CC2)c2ccc(F)cc2)cc1` [1569M13] are 5.81 and “S (strong (Z score > 5))”. Taken in the same sequence, the figures for `Cc1cc(N)c2ccccc2[n+]1CCCCCCCCCC[n+]1c(C)cc(N)c2ccccc21.Cl` [1569M17] were 9.20 and “S (strong (Z score > 5))”. Taken in the same sequence, the figures for `C=C1C(=O)OC2C1CCC(C)=CCCC1(C)OC21` (stereo not shown) [1569N21] were 8.12 and “S (strong (Z score > 5))”. As for `COc1cc(C2c3cc4c(cc3C(OC3OC5COC(C)OC5C(O)C3O)C3COC(=O)C23)OCO4)cc(OC)c1O` (stereo not shown) [1569O13], in data set [1], the “Z score (aver)” value is reported as 6.74 and the Clasf entry is “S (strong (Z score > 5))”. The corresponding values for `COc1ccc(CC(N)C(=O)NC2C(CO)OC(n3cnc4c(N(C)C)ncnc43)C2O)cc1.Cl` (stereo not shown) [1569O22] are 7.86 and “S (strong (Z score > 5))”. Taken in the same sequence, the figures for `CC1OC(OC2CCC3(C=O)C4CCC5(C)C(C6=CC(=O)OC6)CCC5(O)C4CCC3(O)C2)CC(O)C1O` (stereo not shown) [1570A13] were 2.74 and “W (weak (Z score 2-3)”. Taken in the same sequence, the figures for `CC12CCC(O)CC1CCC1C2CC(O)C2(C)C(C3=CC(=O)OC3)CCC12O` (stereo not shown) [1570B08] were 2.80 and “W (weak (Z score 2-3)”. For the compound `CN(C)CCN(Cc1ccc(Cl)cc1)c1ccccn1.Cl` [1570B15], in data set [1], the “Z score (aver)” value is reported as 8.42 and the Clasf entry was “S (strong (Z score > 5))”.

`CCC1(C2OC(C3OC(O)(CO)C(C)CC3C)CC2C)CCC(C2(C)CCC3(CC(O)C(C)C(C(C)C(OC)C(C)C(=O)[O-])O3)O2)O1.[Na+]` (stereo not shown) [1570E18]: in data set [1], the “Z score (aver)” value turned out to be 9.26 and the Clasf entry is recorded as “S (strong (Z score > 5))”.

For the compound `CCC(C(=O)C(C)C(O)C(C)CCc1ccc(C)c(O)c1C(=O)[O-])C1OC(CC)(C2CCC(O)(CC)C(C)O2)CC1C.[Na+]` (stereo not shown) [1570F17], in data set [1], the “Z score (aver)” value is 8.04 and the Clasf result is “S (strong (Z score > 5))”. The corresponding values for `Cc1cc2c(C(C)C)c(O)c(O)c(C=O)c2c(O)c1-c1c(C)cc2c(C(C)C)c(O)c(O)c(C=O)c2c1O` [1570G15] are 3.54 and “M (medium (Z score 3-5))”. The corresponding values for `NCC1OC(OC2C(N)CC(N)C(O)C2OC2OC(CO)C(O)C2O)C(N)C(O)C1O.O=S(=O)(O)O` (stereo not shown) [1570G18] are 6.58 and “S (strong (Z score > 5))”. The corresponding values for `O=C1C=C2C=CC3CC2(O1)C1CCCCN31` (stereo not shown) [1570J03] are 3.84 and “M (medium (Z score 3-5))”. Regarding `CCCCCCCCCCCCCCCC[N+](C)(C)CCN(Cc1ccc(OC)cc1)c1ncccn1` [1570J12], in data set [1], the “Z score (aver)” value was 8.18 and the Clasf entry was “S (strong (Z score > 5))”. Taken in the same sequence, the figures for `CCCC(C(=O)OCCN(CC)CC)(c1ccccc1)c1ccccc1.Cl` [1570K18] were 3.31 and “M (medium (Z score 3-5))”. Taken in the same sequence, the figures for `Nc1ncn(C2OC(CO)C(O)C2O)c(=O)n1` (stereo not shown) [1570N13] were 7.46 and “S (strong (Z score > 5))”. The corresponding values for `O=c1cc(-c2ccc(O)c(O)c2)oc2cc(O)cc(O)c12` [1570N21] are 3.48 and “M (medium (Z score 3-5))”. With `CCCCc1ccc2nc(NC(=O)C3=NN(C)C(=O)CC3)sc2c1` [1715B12], in data set [1], the “Z score (aver)” value is recorded as 2.67 and the Clasf entry is “W (weak (Z score 2-3)”. As to `COc1cc(C#N)ccc1OC(=O)Cc1coc2ccc3ccccc3c12` [1715D21], in data set [1], the “Z score (aver)” value was determined as 2.52 and the Clasf result is recorded as “W (weak (Z score 2-3)”. In general, IC50 refers to the concentration at which inhibition is half-maximal. `C/C=C(/C)C(=O)O[C@H]1C(C)=C2[C@H]([C@@H]1OC(=O)CCCCCCC)[C@@](C)(OC(C)=O)C[C@H](OC(=O)CCC)[C@@]1(O)[C@H]2OC(=O)[C@@]1(C)O` [Thapsigargin, reference compound]: the IC50 in data set [2] was determined as 31 nM; in data set [3] it was 7.8 nM. Moreover, the “hit in primary screen (increased percentage of p27 positive cells)” value in data set [1] (LNCaP-S14, ~5 to 35 μM, 18 h) is reported as “identified”. With `COC[C@H]1OC(=O)c2coc3c2[C@@]1(C)C1=C(C3=O)[C@@H]2CCC(=O)[C@@]2(C)C[C@H]1OC(C)=O` [Wortmannin, reference compound], the “hit in primary screen (increased percentage of p27 positive cells)” value in data set [1] (LNCaP-S14, ~5 to 35 μM, 18 h) was “scored positive”. The same measure, in the same setting: as for `CC[C@@]1(O)C(=O)OCc2c1cc1n(c2=O)Cc2cc3ccccc3nc2-1` [camptothecin, reference compound], the entry is “identified”; as for `COc1cc([C@@H]2c3cc4c(cc3[C@@H](O[C@@H]3O[C@@H]5CO[C@@H](C)O[C@H]5[C@H](O)[C@H]3O)[C@H]3COC(=O)[C@H]23)OCO4)cc(OC)c1O` [etoposide, reference compound], “identified”.

Take `CO[C@@]12[C@H](COC(N)=O)C3=C(C(=O)C(C)=C(N)C3=O)N1C[C@@H]1N[C@@H]12` [mitomycin C, reference compound]: the “hit in primary screen (increased percentage of p27 positive cells)” value in data set [1] was “identified”. Take `CC[C@H](CO)Nc1nc(NCc2ccccc2)c2ncn(C(C)C)c2n1` [roscovitine, reference compound]: in data set [1], the “percentage of p27 positive cells” value is “up to 50%”.
